For 29 compounds, AC50 results are on record in ChEMBL document CHEMBL5291721, “A preclinical secondary pharmacology resource illuminates target-adverse drug reaction associations of marketed drugs” (Nat Commun, 2023).

Among the targets are Histamine H3 receptor (Homo sapiens, UniProt Q9Y5N1); D(3) dopamine receptor (Homo sapiens, UniProt P35462); Mu-type opioid receptor (Homo sapiens, UniProt P35372).
Assay [1] addresses 3',5'-cyclic-AMP phosphodiesterase 4D (Homo sapiens, UniProt Q08499). The assay is classed as functional.
The target of assay [2] is T1, 5-hydroxytryptamine receptor 2B (Homo sapiens, UniProt P41595). Format: functional, cell-based.
For assay [3], the target named is Voltage-dependent L-type calcium channel subunit alpha-1C (Rattus norvegicus, UniProt P22002). Format: functional.
Assay [4] deals with T1, 5-hydroxytryptamine receptor 2B. Format: functional, cell-based. This is another data set of the same source.
The target in another assay is T2, Adenosine receptor A3 (Homo sapiens, UniProt P0DMS8).
T2 sequence (P0DMS8 whole entry): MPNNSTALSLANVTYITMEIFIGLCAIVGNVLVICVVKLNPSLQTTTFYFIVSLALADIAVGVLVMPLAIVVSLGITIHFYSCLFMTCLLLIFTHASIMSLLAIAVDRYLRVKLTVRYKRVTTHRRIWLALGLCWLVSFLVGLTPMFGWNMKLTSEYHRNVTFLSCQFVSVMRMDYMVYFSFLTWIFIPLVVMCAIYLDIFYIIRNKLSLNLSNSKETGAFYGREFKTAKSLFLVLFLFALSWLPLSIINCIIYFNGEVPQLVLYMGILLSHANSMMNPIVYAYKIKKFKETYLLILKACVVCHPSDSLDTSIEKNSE

The target in assay [5] is T3, Alpha-1A adrenergic receptor (Homo sapiens, UniProt P35348).
T3 sequence (P35348 whole entry): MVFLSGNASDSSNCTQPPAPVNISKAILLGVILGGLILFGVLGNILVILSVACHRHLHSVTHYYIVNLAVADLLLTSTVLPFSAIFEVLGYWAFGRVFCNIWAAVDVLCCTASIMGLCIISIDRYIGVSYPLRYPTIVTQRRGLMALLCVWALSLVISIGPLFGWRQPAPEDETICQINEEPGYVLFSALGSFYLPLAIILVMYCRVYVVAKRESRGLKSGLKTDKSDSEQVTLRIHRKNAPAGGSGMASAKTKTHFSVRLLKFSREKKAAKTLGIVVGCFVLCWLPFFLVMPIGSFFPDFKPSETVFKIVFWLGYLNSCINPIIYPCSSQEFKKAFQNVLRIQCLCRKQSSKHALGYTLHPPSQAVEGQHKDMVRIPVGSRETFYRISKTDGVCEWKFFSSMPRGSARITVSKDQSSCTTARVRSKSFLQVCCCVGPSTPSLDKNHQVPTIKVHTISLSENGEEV

The next assay concerns the target T4, Adenosine receptor A1 (Homo sapiens, UniProt P30542).
T4 sequence (P30542 whole entry): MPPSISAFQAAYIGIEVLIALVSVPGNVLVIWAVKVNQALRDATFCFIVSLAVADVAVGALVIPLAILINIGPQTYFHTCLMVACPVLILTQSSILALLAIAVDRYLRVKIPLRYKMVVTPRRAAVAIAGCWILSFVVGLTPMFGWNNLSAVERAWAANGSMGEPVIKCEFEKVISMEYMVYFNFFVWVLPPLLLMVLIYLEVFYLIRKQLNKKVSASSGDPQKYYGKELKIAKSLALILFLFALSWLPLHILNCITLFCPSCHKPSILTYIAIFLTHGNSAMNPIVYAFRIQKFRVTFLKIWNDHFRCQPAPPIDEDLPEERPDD

In assay [6] the target is T5, Prostaglandin G/H synthase 1 (Rattus norvegicus, UniProt Q63921).
T5 sequence (Q63921 whole entry): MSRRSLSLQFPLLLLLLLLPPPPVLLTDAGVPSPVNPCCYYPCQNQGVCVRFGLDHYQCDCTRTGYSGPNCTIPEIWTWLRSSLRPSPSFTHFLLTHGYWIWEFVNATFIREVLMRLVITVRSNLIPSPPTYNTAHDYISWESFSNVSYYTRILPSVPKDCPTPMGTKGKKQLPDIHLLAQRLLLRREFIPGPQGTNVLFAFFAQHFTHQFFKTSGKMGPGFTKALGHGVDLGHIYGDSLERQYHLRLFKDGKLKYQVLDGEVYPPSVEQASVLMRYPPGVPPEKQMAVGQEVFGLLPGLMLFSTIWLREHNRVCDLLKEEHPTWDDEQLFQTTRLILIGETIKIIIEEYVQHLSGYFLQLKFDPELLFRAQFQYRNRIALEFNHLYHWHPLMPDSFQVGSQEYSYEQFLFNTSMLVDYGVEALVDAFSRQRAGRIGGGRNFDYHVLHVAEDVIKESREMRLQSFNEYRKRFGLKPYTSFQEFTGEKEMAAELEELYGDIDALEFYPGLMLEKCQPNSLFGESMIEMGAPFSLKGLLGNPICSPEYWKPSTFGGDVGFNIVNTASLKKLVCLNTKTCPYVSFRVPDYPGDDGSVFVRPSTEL
Format: functional.

Assay [7] addresses T6, 5-hydroxytryptamine receptor 3A (Homo sapiens, UniProt P46098).
T6 sequence (P46098 whole entry): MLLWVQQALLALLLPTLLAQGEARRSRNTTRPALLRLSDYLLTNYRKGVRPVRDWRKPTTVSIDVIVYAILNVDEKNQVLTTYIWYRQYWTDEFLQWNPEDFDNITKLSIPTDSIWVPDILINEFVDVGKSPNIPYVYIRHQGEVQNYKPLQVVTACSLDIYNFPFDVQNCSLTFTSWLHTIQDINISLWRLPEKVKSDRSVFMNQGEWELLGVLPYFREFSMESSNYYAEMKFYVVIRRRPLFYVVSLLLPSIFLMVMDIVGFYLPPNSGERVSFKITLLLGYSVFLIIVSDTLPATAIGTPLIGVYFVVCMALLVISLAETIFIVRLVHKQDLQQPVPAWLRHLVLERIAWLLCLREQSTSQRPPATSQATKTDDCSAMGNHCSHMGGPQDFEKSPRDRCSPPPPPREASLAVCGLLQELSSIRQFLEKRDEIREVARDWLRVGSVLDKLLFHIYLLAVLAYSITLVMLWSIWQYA
Format: functional.

Assay [8] addresses 5-hydroxytryptamine receptor 2A (Homo sapiens, UniProt P28223). The assay is classed as functional, cell-based.
A further assay has as its target Cannabinoid receptor 1 (Homo sapiens, UniProt P21554). The assay is classed as functional, cell-based.
Assay [9] addresses T3, Alpha-1A adrenergic receptor. Format: functional, cell-based.

Where only a bound is given, the exact number is not on record here.
Also: assay procedure not described here.

Chain of Cannabinoid receptor 1 (P21554 whole entry): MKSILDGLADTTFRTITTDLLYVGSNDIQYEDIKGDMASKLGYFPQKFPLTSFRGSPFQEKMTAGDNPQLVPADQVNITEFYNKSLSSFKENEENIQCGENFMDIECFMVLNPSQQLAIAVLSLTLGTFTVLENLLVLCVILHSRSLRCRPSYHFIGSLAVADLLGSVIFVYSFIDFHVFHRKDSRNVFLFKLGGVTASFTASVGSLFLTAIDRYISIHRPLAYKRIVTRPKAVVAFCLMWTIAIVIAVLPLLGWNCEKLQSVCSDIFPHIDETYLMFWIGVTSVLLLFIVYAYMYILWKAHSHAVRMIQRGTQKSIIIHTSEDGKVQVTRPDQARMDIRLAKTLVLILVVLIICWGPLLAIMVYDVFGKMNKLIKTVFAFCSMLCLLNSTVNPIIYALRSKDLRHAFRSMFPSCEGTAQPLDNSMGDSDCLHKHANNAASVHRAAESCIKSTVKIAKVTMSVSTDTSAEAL
T1 sequence (P41595 whole entry): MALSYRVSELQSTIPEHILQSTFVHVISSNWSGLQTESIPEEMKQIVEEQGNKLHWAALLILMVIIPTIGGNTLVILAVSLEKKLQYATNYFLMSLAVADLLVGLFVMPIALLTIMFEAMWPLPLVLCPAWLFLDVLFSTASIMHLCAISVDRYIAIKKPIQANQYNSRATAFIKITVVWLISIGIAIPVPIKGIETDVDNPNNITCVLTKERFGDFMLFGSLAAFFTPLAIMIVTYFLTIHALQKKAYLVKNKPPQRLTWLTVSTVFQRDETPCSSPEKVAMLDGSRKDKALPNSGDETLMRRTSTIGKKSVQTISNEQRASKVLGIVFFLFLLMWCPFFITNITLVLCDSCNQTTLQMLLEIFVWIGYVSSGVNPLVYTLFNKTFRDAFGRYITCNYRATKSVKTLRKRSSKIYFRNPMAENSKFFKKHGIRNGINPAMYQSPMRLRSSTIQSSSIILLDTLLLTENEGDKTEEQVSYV
Chain of 3',5'-cyclic-AMP phosphodiesterase 4D (Q08499 whole entry): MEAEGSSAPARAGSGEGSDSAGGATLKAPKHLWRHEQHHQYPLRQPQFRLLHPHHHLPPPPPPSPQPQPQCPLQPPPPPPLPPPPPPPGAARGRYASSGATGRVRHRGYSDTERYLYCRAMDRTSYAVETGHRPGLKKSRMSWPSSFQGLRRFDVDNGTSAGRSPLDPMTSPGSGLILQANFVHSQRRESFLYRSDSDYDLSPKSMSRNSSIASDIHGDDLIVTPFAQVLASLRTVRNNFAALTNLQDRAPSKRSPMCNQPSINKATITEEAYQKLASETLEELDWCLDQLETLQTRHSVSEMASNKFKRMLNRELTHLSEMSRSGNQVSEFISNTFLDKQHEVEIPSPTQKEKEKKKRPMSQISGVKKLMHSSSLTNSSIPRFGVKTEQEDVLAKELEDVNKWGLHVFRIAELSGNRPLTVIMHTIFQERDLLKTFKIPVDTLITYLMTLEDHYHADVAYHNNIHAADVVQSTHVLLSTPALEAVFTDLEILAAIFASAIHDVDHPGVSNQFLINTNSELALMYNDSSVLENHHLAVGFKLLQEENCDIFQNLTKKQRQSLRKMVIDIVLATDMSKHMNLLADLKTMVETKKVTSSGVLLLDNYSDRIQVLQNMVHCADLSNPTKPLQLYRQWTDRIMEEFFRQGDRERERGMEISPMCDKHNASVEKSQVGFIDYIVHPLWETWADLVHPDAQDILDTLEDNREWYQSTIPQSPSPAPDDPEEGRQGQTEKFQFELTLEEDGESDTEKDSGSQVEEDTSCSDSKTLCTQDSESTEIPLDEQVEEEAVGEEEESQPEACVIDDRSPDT
Chain of Histamine H3 receptor (Q9Y5N1 whole entry): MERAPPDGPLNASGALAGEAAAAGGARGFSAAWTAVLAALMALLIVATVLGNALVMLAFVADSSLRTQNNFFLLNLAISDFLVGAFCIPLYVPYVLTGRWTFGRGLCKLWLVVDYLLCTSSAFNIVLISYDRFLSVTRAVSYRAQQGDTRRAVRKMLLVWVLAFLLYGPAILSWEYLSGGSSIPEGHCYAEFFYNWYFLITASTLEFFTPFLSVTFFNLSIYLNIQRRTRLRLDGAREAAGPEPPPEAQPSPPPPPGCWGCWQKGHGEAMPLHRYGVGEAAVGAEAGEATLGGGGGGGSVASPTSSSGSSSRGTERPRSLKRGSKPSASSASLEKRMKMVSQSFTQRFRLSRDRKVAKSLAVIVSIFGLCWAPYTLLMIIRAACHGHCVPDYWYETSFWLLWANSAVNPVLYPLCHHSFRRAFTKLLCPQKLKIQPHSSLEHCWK
Chain of 5-hydroxytryptamine receptor 2A (P28223 whole entry): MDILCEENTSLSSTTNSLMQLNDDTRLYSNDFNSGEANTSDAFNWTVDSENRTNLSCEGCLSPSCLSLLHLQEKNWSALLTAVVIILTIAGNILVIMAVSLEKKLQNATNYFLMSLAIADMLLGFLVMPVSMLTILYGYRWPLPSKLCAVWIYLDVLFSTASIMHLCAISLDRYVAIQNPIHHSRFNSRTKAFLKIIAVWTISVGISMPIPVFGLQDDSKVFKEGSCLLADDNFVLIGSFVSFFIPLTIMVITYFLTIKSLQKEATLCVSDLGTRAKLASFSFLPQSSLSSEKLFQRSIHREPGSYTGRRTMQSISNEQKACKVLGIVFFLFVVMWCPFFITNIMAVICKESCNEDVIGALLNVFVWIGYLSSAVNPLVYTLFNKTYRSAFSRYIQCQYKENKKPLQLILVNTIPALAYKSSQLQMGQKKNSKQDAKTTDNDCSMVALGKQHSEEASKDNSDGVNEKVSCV
Chain of Voltage-dependent L-type calcium channel subunit alpha-1C (P22002 whole entry): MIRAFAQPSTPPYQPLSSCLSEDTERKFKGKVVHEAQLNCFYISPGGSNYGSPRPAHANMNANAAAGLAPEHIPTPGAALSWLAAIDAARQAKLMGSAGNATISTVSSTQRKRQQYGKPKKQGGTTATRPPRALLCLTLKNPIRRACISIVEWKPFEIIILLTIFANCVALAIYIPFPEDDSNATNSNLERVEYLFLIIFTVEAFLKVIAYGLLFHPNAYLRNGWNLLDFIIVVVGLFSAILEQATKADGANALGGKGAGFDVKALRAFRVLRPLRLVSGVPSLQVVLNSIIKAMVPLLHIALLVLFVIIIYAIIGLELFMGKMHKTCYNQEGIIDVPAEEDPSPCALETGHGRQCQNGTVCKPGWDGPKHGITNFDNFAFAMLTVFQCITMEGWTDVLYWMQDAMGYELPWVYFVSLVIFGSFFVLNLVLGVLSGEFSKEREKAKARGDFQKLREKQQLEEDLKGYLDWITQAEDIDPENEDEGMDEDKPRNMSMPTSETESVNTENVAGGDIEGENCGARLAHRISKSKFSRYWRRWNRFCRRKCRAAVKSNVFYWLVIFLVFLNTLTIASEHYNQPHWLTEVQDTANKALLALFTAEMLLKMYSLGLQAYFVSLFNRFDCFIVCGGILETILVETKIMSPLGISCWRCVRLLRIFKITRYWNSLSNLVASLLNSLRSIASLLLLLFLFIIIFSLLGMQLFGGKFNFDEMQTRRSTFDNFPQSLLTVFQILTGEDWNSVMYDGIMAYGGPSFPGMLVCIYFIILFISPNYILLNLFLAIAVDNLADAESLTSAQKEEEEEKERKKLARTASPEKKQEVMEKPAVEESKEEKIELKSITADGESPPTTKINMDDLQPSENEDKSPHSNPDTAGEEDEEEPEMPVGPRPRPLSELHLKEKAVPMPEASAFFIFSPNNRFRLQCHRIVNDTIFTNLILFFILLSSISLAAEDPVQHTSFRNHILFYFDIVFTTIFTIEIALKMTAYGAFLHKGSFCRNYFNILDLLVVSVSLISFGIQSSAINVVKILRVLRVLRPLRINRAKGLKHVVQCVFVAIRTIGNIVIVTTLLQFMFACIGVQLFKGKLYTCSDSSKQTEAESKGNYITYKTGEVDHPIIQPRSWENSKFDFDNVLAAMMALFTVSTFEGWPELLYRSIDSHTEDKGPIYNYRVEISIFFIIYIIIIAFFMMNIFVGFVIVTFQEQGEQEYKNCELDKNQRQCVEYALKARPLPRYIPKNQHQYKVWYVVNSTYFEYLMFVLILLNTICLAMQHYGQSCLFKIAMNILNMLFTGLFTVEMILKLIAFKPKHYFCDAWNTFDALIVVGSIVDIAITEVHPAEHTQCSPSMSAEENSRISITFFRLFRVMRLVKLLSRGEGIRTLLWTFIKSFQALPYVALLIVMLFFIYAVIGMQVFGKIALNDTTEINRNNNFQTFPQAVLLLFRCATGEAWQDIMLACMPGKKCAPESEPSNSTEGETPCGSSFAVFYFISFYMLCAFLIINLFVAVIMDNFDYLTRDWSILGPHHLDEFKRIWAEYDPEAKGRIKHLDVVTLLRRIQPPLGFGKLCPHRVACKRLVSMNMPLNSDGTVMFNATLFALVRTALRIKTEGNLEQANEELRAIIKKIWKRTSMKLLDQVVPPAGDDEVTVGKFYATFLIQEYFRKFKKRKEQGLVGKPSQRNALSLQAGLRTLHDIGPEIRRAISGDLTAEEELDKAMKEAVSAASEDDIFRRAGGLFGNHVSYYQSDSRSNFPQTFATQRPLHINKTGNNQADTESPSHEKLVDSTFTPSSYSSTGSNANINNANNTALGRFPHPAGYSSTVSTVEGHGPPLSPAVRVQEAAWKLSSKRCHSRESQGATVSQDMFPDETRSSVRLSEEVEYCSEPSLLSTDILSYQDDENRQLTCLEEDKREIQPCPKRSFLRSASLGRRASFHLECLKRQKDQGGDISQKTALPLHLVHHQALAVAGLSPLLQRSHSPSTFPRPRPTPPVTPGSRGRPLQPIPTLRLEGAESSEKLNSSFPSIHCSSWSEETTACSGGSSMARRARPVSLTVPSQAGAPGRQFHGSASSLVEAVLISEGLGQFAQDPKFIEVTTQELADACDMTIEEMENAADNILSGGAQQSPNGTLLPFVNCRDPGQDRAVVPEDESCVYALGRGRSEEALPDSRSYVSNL

As to `CC(N)Cc1ccccc1` (configuration not stated) [AMPHETAMINE], the AC50 in assay [1] is over 30 µM; on Histamine H3 receptor, over 30 µM; in assay [2], over 30 µM; in [3], over 10 µM; in assay [4] it was over 30 µM; at Adenosine receptor A3, over 30 µM. For the same compound, the AC50 in [5] was over 10 µM; on Adenosine receptor A1, 18 µM; in [6], over 30 µM; in assay [7], over 30 µM; in [8], over 30 µM; at D(3) dopamine receptor, over 30 µM. Moreover, the AC50 at Cannabinoid receptor 1 was over 30 µM.
Regarding `O=C1c2c(O)c(=O)ccn2N([C@@H]2c3ccccc3SCc3c2ccc(F)c3F)[C@@H]2COCCN12` [BALOXAVIR], the half-maximal activity concentration (AC50) in assay [9] is over 30 µM.
On the same count and under the same terms, to `C(=N\NC1=NCCN1)/c1c2ccccc2c(/C=N/NC2=NCCN2)c2ccccc12` [BISANTRENE] belongs 1.47 µM; to `CCO/N=C(\C(=O)N[C@@H]1C(=O)N2C(C(=O)[O-])=C(Sc3nc(-c4cc[n+](C)cc4)cs3)CS[C@H]12)c1nsc(N)n1` [CEFTAROLINE], over 30 µM; to `C[N+](C)(C)CCCCCCCCCC[N+](C)(C)C` [DECAMETHONIUM], over 30 µM.
On the same count and under the same terms, to `O=C1c2ccccc2C(=O)C1C(=O)C(c1ccccc1)c1ccccc1` [DIPHENADIONE] belongs over 3 µM.
For the compound `COc1cc2c(cc1OC)C(=O)C(CC1CCN(Cc3ccccc3)CC1)C2` (configuration not stated) [DONEPEZIL], the concentration at half-maximal activity (AC50) is over 30 µM on Mu-type opioid receptor; over 30 µM in assay [1]; 2.5 µM at Histamine H3 receptor; over 10 µM in assay [3]; over 30 µM at Adenosine receptor A3; over 30 µM at Adenosine receptor A1. Besides, the concentration at half-maximal activity (AC50) (in assay [6]; in assay [7]; in assay [8]; on Cannabinoid receptor 1) was over 30 µM each time.
For `CCOC(=O)c1ccc(O)cc1` [ETHYLPARABEN], in assay [9], the AC50 is over 30 µM.
In assay [9], `O=C(COc1ccc(Cl)cc1)N1CCN(Cc2ccc3c(c2)OCO3)CC1` [FIPEXIDE] came in with an AC50 of 13.3 µM.
On the same count and under the same terms, to `Cc1c(-c2ccccc2)oc2c(C(=O)OCCN3CCCCC3)cccc2c1=O` [FLAVOXATE] belongs 6.29 µM.
The same measure, in the same setting: to `CCC(=O)c1c(O)cc(O)cc1O` [FLOPROPIONE] belongs over 30 µM.
On the same count and under the same terms, to `CC1(C)O[C@@H]2C[C@H]3[C@@H]4C[C@H](F)C5=CC(=O)CC[C@]5(C)[C@H]4[C@@H](O)C[C@]3(C)[C@]2(C(=O)CO)O1` [FLURANDRENOLIDE] belongs over 30 µM.
Take `C#C[C@]1(O)CC[C@H]2[C@@H]3CCC4=CC(=O)CC[C@@H]4[C@H]3CC[C@@]21CC` [LEVONORGESTREL]: in assay [9], the AC50 was over 30 µM.
`OC[C@@H](O)[C@@H](O)[C@H](O)[C@H](O)CO` [MANNITOL] yielded a half-maximal activity concentration (AC50) in assay [9] of over 30 µM.
`CN1CCCC(CN2c3ccccc3Sc3ccccc32)C1` (configuration not stated) [MEPAZINE] yielded a half-maximal activity concentration (AC50) in assay [9] of 0.391 µM.
The same measure, in the same setting: next, `Sc1ncnc2nc[nH]c12` [MERCAPTOPURINE ANHYDROUS]: over 30 µM; `C[N+]1(C)[C@@H]2C[C@@H](OC(=O)[C@H](CO)c3ccccc3)C[C@H]1[C@@H]1O[C@@H]12` [METHSCOPOLAMINE]: over 30 µM.
For `CC(=O)Oc1c(C)cc(OCC(O)CNC(C)C)c(C)c1C` (configuration not stated) [METIPRANOLOL], the concentration at half-maximal activity (AC50) in assay [9] is over 30 µM.
Still for that read-out and setting: to `O=C1CC[C@@]2(O)[C@H]3Cc4ccc(O)c5c4[C@@]2(CCN3CC2CC2)[C@H]1O5` [NALTREXONE] belongs over 30 µM.
`OCCN1CCN(CCCN2c3ccccc3C=Cc3ccccc32)CC1` [OPIPRAMOL]: the AC50 (in assay [1]; at Histamine H3 receptor; in [2]; in [4]; on Adenosine receptor A3; at Adenosine receptor A1) was over 30 µM in each case. Also, the AC50 in [6] is over 30 µM; in assay [7], over 30 µM; in assay [8] it was 28 µM; on D(3) dopamine receptor it was 1.32 µM; at Cannabinoid receptor 1, over 30 µM; in [9], 1.07 µM.
`CC(N/C(=N\C#N)Nc1ccncc1)C(C)(C)C` (configuration not stated) [PINACIDIL ANHYDROUS]: in [9], the AC50 was over 30 µM.
Same read-out and setting: next, `CC(O)CO` (configuration not stated) [PROPYLENE GLYCOL]: over 30 µM; `CN(C)C(=O)Oc1ccc[n+](C)c1` [PYRIDOSTIGMINE]: over 30 µM.
Turning to `O=C(NC[C@H]1CN(c2ccc(N3CCOCC3=O)cc2)C(=O)O1)c1ccc(Cl)s1` [RIVAROXABAN], the AC50 (on Mu-type opioid receptor; in assay [1]; in [2]; in assay [4]; at Adenosine receptor A3; in [6]) was over 30 µM in each case. In addition, the AC50 in assay [7] was over 30 µM; in [8], over 30 µM; on D(3) dopamine receptor, over 30 µM; on Cannabinoid receptor 1, over 30 µM; in assay [9], over 3 µM.
`CC(C)OC(=O)[C@H](C)N[P@](=O)(OC[C@H]1O[C@@H](n2ccc(=O)[nH]c2=O)[C@](C)(F)[C@@H]1O)Oc1ccccc1` [SOFOSBUVIR]: the AC50 in [9] was over 30 µM.
`CS(=O)(=O)c1ccc([C@@H](O)[C@@H](CO)NC(=O)C(Cl)Cl)cc1` [THIAMPHENICOL]: the concentration at half-maximal activity (AC50) (in assay [1]; at Histamine H3 receptor; in [2]; in assay [3]; in [4]; on Adenosine receptor A3) was over 30 µM throughout. In addition, the concentration at half-maximal activity (AC50) (on Adenosine receptor A1; in [6]; in [7]; on D(3) dopamine receptor; on Cannabinoid receptor 1; in [9]) was over 30 µM each time.
In assay [9], `Cc1ccc(O)c2ncccc12` [TILIQUINOL] displayed an AC50 of over 30 µM.
On the same count and under the same terms, next, `CC(=O)OC[C@H]1O[C@@H](n2ccc(=O)[nH]c2=O)[C@H](OC(C)=O)[C@@H]1OC(C)=O` [URIDINE TRIACETATE]: over 30 µM; `CCOC(=O)N[C@@H]1CC[C@@H]2[C@@H](C1)C[C@H]1C(=O)O[C@H](C)[C@H]1[C@H]2/C=C/c1ccc(-c2cccc(F)c2)cn1` [VORAPAXAR]: over 30 µM.
